Data as given in paper PMC6086658, “Unified mechanisms for self-RNA recognition by RIG-I Singleton-Merten syndrome variants” (eLife, 2018).
Changes are numbered by the printed parent chain.

What was measured:
RIG-I C268F = biological target: T1, RIG-I C268F (Homo sapiens, UniProt O95786, C268F); experiment: MANT-nucleotide binding, tryptophan fluorescence FRET
T1 construct: made in house; host or cells: High Five (Trichoplusia ni) insect cells, baculovirus, pFBDM vector
T1 sequence (O95786 1-925 C268F): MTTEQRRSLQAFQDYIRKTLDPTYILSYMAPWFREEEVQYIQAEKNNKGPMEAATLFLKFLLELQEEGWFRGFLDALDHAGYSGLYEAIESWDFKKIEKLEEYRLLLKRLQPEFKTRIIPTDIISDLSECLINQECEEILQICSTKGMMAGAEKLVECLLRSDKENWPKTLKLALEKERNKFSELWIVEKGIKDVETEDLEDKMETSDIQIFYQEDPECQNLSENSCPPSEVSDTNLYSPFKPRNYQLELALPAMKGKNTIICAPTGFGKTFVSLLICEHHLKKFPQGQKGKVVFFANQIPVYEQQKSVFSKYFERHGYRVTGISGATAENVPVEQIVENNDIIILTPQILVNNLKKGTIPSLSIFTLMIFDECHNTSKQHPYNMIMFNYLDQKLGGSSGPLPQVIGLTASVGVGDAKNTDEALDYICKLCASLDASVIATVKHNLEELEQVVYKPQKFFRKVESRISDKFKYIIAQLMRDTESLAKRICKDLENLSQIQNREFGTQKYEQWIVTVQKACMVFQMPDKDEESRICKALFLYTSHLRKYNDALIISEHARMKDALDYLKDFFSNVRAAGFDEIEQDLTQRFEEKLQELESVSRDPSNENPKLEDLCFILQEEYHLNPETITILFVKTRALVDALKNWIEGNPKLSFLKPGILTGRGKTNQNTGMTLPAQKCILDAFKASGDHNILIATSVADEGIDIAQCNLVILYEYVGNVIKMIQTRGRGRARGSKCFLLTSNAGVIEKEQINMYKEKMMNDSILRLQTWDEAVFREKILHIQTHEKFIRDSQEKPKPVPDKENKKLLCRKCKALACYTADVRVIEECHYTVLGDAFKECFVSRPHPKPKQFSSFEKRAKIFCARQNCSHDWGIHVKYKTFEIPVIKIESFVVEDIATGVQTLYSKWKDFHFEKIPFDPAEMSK
Description: (§1) Binding of MANT-ATP and MANT-ATPγS to different full-length RIG-I mutants (1–925, N-terminal His-tag) was determined via Förster resonance energy transfer from RIG-I to MANT-ATP (Jena Bioscience, Jena, Germany). All samples were prepared in 96-well black chimney microplates. 2.2 µM protein and equimolar concentrations of a 14mer dsRNA (5'-CGACGCUAGCGUCG-3', see 'Protein crystalization') were pre-incubated with different MANT-ATP concentrations (0.2 µM – 200 µM) for 15 min at room temperature in assay buffer (25 mM HEPES, 50 mM NaCl, 5 mM MgCl2, 1 mM DTT, pH 7). Fluorescence of MANT-ATP was measured in a TECAN M1000 microplate reader at λex/em = 290/448 nm, gain = 170 using an average of five reads per well. Assays were performed four times in independent experiments using the same protein purification batch. For determination of affinities fluorescence values were fitted to Equation (1) using R, where y is the fluorescence, [P] is the protein concentration, Bmax is the maximal fluorescence and KD is the dissociation constant. Fitting was performed globally on all available datasets. Representative values in figures are mean values ± SD.

RIG-I K270I = biological target: T2, RIG-I K270I (Homo sapiens, UniProt O95786, K270I); experiment: as above
T2 construct: different full-length RIG-I mutants (1–925, N-terminal His-tag); made in house; host or cells: High Five (Trichoplusia ni) insect cells, baculovirus, pFBDM vector
T2 sequence (O95786 1-925 K270I): T1 sequence (O95786 1-925 C268F) with F268C, K270I
Description: as §1

[1] = presence of equimolar 14mer dsRNA, n.f. = no fit possible as no saturation was reached

- Kd (RIG-I C268F; absence of RNA, n = 4, read-out: Affinity (KD) to RIG-I C268F): 166 ± 34 µM
- Affinity (KD) to RIG-I C268F + RNA (RIG-I C268F; [1]): n.f.
- Kd (RIG-I K270I; absence of RNA, n = 4, read-out: Affinity (KD) to RIG-I K270I): 298 ± 81 µM
- Affinity (KD) to RIG-I K270I + RNA (RIG-I K270I; [1]): n.f.
Substance: MANT-ATP
